Results on eleven molecules are retold here after PubChem BioAssay (NCI).

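Dose response: 5 concentrations. Exposure: 48 h. Format: 96-well plates. Endpoint: linear interpolation; highest concentration if not reached. The concentration for 50% growth inhibition is given as GI50. TGI: concentration producing complete growth inhibition.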

Some test systems named below: ACHN renal; HOP-62 NSCLC; HT29 colon; NCI-H23 lung; OVCAR-3 ovarian; SW-620 colon; U251 CNS; UACC-62 melanoma; DLD-1 colon; KM20L2 colon.
What all share (assay): NCI tumour cell line growth inhibition, 48 h

Regarding `COc1ccc(C(=O)Cn2c(C(=O)c3ccccc3)nc3ccccc32)cc1`, the GI50 with ACHN renal is 6.23 µM; in the test on HOP-62 NSCLC, 6.57 µM; in the test with HT29 colon it was 1.25 µM; in the test with NCI-H23 lung, 5.08 µM; with OVCAR-3 ovarian it was 2.59 µM; in the test on SW-620 colon it was 1.15 µM. For the same molecule, the GI50 in the test on U251 CNS is 3.62 µM. For the same molecule, the TGI with ACHN renal is greater than 100 µM; with HOP-62 NSCLC, greater than 100 µM; in the test with HT29 colon it was greater than 100 µM; with NCI-H23 lung, greater than 100 µM; with OVCAR-3 ovarian, greater than 21.6 µM; in the test on SW-620 colon it was greater than 100 µM. Besides, the TGI with U251 CNS and in the test with UACC-62 melanoma was greater than 100 µM each time.

For the molecule `[N-]=[N+]=NC(c1cn(C2CC(O)C(CO)O2)c(=O)[nH]c1=O)C(Cl)Br` (configuration not stated), the TGI with ACHN renal, in the test on DLD-1 colon, in the test on HT29 colon, with KM20L2 colon, with NCI-H23 lung and in the test on SW-620 colon was greater than 100 µM throughout. In addition, in the test on U251 CNS, the TGI was greater than 100 µM.

On to `CN(C)c1ccc(Nc2c3ccccc3nc3ccccc23)cc1`, for which the GI50 in the test with ACHN renal was 0.532 µM; in the test on HOP-62 NSCLC, 1.14 µM; with HT29 colon, 0.53 µM; in the test on NCI-H23 lung, 1.1 µM; with OVCAR-3 ovarian it was 1.22 µM; in the test on SW-620 colon, 0.665 µM. Moreover, the results for the GI50 in the test on U251 CNS and in the test with UACC-62 melanoma were 1.12 µM and 1.19 µM, respectively. Further, the TGI was 2.27 µM with ACHN renal; 2.59 µM in the test on HOP-62 NSCLC; 2.34 µM with HT29 colon; 2.92 µM in the test on NCI-H23 lung; 3.22 µM in the test with OVCAR-3 ovarian; 3.67 µM in the test with SW-620 colon. Moreover, the figures for the TGI in the test with U251 CNS and in the test with UACC-62 melanoma were 2.7 µM and 2.98 µM, respectively.

Take `CN1C(=O)c2ccc3ccccc3c2C1=O`: the TGI with ACHN renal, in the test with HOP-62 NSCLC, with HT29 colon, with NCI-H23 lung, in the test on OVCAR-3 ovarian and with SW-620 colon was greater than 100 µM each time. In addition, the TGI in the test with U251 CNS and in the test with UACC-62 melanoma was greater than 100 µM throughout.

With `N#CC(CCN1CCC(Nc2ccccc2)(c2nnnn2C2CCCCC2)CC1)(c1ccccc1)c1ccccc1`, the TGI in the test with ACHN renal, in the test on HOP-62 NSCLC, in the test with HT29 colon, in the test on NCI-H23 lung, in the test on OVCAR-3 ovarian and in the test on SW-620 colon was greater than 100 µM in each case. For the same molecule, the TGI with U251 CNS and with UACC-62 melanoma was greater than 100 µM in each case.

Turning to `COc1ccc(-c2c(C)c(C(=O)O)nc(-c3ccc4c(O)c(OC)c5c(c4n3)=NC(C)(C)N=5)c2N)c(O)c1OC`, the TGI in the test on ACHN renal was 27.7 µM; in the test with HOP-62 NSCLC, 44 µM; with HT29 colon, greater than 100 µM; with NCI-H23 lung, 6.95 µM; with OVCAR-3 ovarian, 43.2 µM; in the test with SW-620 colon it was 35.4 µM. In addition, the results for the TGI in the test with U251 CNS and in the test on UACC-62 melanoma were 25.8 µM and 62.2 µM, respectively.

As for `O=C(NCCN1CCOCC1)OCc1nc2nc(Cl)nc(N3CCOCC3)c2[nH]1`, the GI50 in the test on ACHN renal is 0.901 µM; with HOP-62 NSCLC it was 4.93 µM; in the test on HT29 colon, greater than 100 µM; in the test with NCI-H23 lung, 3.56 µM; in the test on OVCAR-3 ovarian it was 1.15 µM; with SW-620 colon, 2.68 µM. The GI50 in the test on U251 CNS was 4.09 µM; in the test with UACC-62 melanoma, 2.98 µM. Further, the TGI with ACHN renal was greater than 100 µM; in the test with HOP-62 NSCLC it was greater than 100 µM; in the test with HT29 colon it was greater than 100 µM; in the test with NCI-H23 lung, greater than 100 µM; in the test with OVCAR-3 ovarian it was 7.18 µM; with SW-620 colon it was greater than 100 µM. The TGI in the test on U251 CNS and in the test with UACC-62 melanoma was greater than 100 µM each time.

Take `Cc1cn2c(/C=C3/C(=O)Nc4c3ccc3ccccc43)c(C(F)(F)F)nc2s1`: the GI50 is 6.24 µM in the test on ACHN renal; 0.586 µM in the test on HOP-62 NSCLC; 0.396 µM in the test on HT29 colon; 2.09 µM in the test with NCI-H23 lung; 0.381 µM in the test on OVCAR-3 ovarian; 0.965 µM with SW-620 colon. Moreover, the GI50 in the test on U251 CNS is 2.12 µM; in the test on UACC-62 melanoma, 0.627 µM. For the same molecule, the TGI with ACHN renal was greater than 100 µM; in the test with HOP-62 NSCLC, 93.1 µM; in the test on HT29 colon, 14.2 µM; with NCI-H23 lung, greater than 100 µM; in the test on OVCAR-3 ovarian, 10.2 µM; in the test on SW-620 colon, greater than 100 µM. The TGI in the test with U251 CNS and in the test on UACC-62 melanoma was greater than 100 µM throughout.

Turning to `C/C(=C\c1ccn(-c2ccccc2N)n1)[C@@H]1C[C@@H]2O[C@]2(C)CCC[C@H](C)[C@H](O)[C@@H](C)C(=O)C(C)(C)[C@@H](O)CC(=O)O1`, the GI50 in the test on ACHN renal is 0.283 µM; in the test on HOP-62 NSCLC, 0.112 µM; in the test with HT29 colon it was 0.0206 µM; in the test with NCI-H23 lung it was 0.0663 µM; with OVCAR-3 ovarian it was 0.0177 µM; with SW-620 colon, 0.0245 µM. The GI50 with U251 CNS was 0.0348 µM; in the test with UACC-62 melanoma it was 0.111 µM. In addition, the TGI is greater than 50 µM in the test with ACHN renal; greater than 50 µM in the test on HOP-62 NSCLC; greater than 50 µM with HT29 colon; greater than 50 µM with NCI-H23 lung; 0.457 µM in the test with OVCAR-3 ovarian; greater than 50 µM in the test on SW-620 colon. The TGI with U251 CNS is greater than 33.6 µM; in the test with UACC-62 melanoma, greater than 50 µM.

Take `OCCCCC#Cc1ccccc1C#Cc1ccc(O)cc1`: the GI50 with ACHN renal is 16.6 µM; in the test on HOP-62 NSCLC, 21.9 µM; with HT29 colon it was 9.41 µM; with NCI-H23 lung, 14.3 µM; in the test on OVCAR-3 ovarian, 14.8 µM; in the test on SW-620 colon it was 18.2 µM. In addition, the GI50 with U251 CNS is 15 µM; in the test on UACC-62 melanoma it was 15.7 µM. For the same molecule, the TGI in the test with ACHN renal amounted to 31.2 µM; in the test with HOP-62 NSCLC, 38.1 µM; in the test with HT29 colon it was 22.2 µM; in the test on NCI-H23 lung, 28.7 µM; in the test on OVCAR-3 ovarian, 30.4 µM; in the test on SW-620 colon, 37.1 µM. The figures for the TGI with U251 CNS and in the test on UACC-62 melanoma were 29.3 µM and 29.6 µM, respectively.

Regarding `CN(C)C(=O)Nc1nc2cc(Cl)c(Cl)cc2[nH]1`, the GI50 in the test with ACHN renal is 3.11 µM; with HOP-62 NSCLC, 3.84 µM; with HT29 colon it was 0.393 µM; with NCI-H23 lung, 2.07 µM; with OVCAR-3 ovarian it was 0.393 µM; in the test on SW-620 colon, 0.476 µM. Also, the GI50 in the test on U251 CNS is 0.636 µM; in the test with UACC-62 melanoma it was 0.382 µM. The TGI is greater than 100 µM in the test with ACHN renal; greater than 50.7 µM in the test with HOP-62 NSCLC; greater than 32.5 µM in the test with HT29 colon; greater than 66.5 µM with NCI-H23 lung; 1.94 µM with OVCAR-3 ovarian; greater than 100 µM in the test on SW-620 colon. In addition, the TGI is greater than 51.1 µM in the test on U251 CNS and greater than 100 µM in the test with UACC-62 melanoma.
